Values joined by “and” are separate entries in the source; they are usually repeats but may differ in a detail not shown here. Equal entries are not always repeated.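 1) Cells in 96-well plates. 2) Compound, 48 h, 5 concentrations. 3) Linear interpolation between surrounding doses. 4) Unreached endpoint = highest concentration. Here, GI50 denotes the concentration required for 50% inhibition of growth. At the TGI there is no net growth.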 A value given as a limit tells only on which side of the number the result lay.

From PubChem BioAssay (NCI) come the findings set out here.

Among the test systems are HS 578T breast; HCC-2998 colon; 786-0 renal; KM12 colon; DU-145 prostate; MCF7 breast; SN12C renal; CAKI-1 renal; SF-295 CNS; A498 renal.
What all share (experiment): NCI tumour cell line growth inhibition, 48 h

Take `COc1cc(NC(C)CCCN2C(=O)c3ccccc3C2=O)c2ncccc2c1OC` (stereo not given): the GI50 was 24.5 µM with HS 578T breast; 33.1 µM in the experiment with HCC-2998 colon; 54.1 µM with 786-0 renal; 29.7 µM in the experiment with KM12 colon; 41.9 µM with DU-145 prostate; 10.9 µM with MCF7 breast. The GI50 is 66.9 µM with SN12C renal, 29.5 µM in the experiment on CAKI-1 renal, 21.1 µM in the experiment on SF-295 CNS and 34.4 µM with A498 renal. The TGI is 97.3 µM in the experiment with HS 578T breast; above 100 µM with HCC-2998 colon; above 100 µM in the experiment on 786-0 renal; above 100 µM in the experiment with KM12 colon; above 100 µM in the experiment on DU-145 prostate; above 100 µM in the experiment with MCF7 breast. For the same molecule, the TGI was above 100 µM in the experiment with SN12C renal, 74.4 µM in the experiment with CAKI-1 renal, 86.5 µM in the experiment on SF-295 CNS and above 100 µM with A498 renal.

Consider `CS(=O)(=O)N1CCc2c(-c3cnc(N)nc3)nc(N3CCOCC3)nc21`, for which the GI50 is 0.324 µM and 0.222 µM in the experiment with HS 578T breast; 0.923 µM and 0.794 µM in the experiment with HCC-2998 colon; 0.696 µM and 0.562 µM in the experiment on 786-0 renal; 2.1 µM and 2.25 µM in the experiment with KM12 colon; 0.632 µM and 0.503 µM in the experiment on DU-145 prostate; 0.0961 µM and 0.05 µM with MCF7 breast. The GI50 in the experiment with SN12C renal is 0.648 µM and 0.667 µM; in the experiment on CAKI-1 renal, 0.484 µM and 0.651 µM; in the experiment on SF-295 CNS, 0.556 µM and 0.354 µM; with A498 renal, 0.203 µM and 0.101 µM. In addition, the TGI is 3.3 µM and 1.86 µM in the experiment on HS 578T breast; above 73.5 µM with HCC-2998 colon; > 8.81 µM and 16.5 µM in the experiment on 786-0 renal; above 100 µM in the experiment with KM12 colon; above 45.9 µM in the experiment with DU-145 prostate; above 76.1 µM with MCF7 breast. Further, the TGI is above 100 µM in the experiment with SN12C renal; > 10 µM and 7.76 µM in the experiment with CAKI-1 renal; 3.91 µM and 3.29 µM with SF-295 CNS; 0.836 µM and 0.447 µM in the experiment with A498 renal.

Regarding `O=C1/C(=C/c2ccccc2[N+](=O)[O-])COc2ccc(O)c(O)c21`, the GI50 with HS 578T breast was 2.05 µM; in the experiment with HCC-2998 colon, 1.56 µM; in the experiment with 786-0 renal, 0.805 µM; in the experiment with KM12 colon, 1.55 µM; in the experiment on DU-145 prostate, 0.807 µM; in the experiment on MCF7 breast, 0.409 µM. Also, the GI50 is 0.679 µM with SN12C renal, 0.607 µM with CAKI-1 renal, 3.26 µM in the experiment on SF-295 CNS and 2.11 µM with A498 renal. In addition, the TGI stood at 12.6 µM in the experiment on HS 578T breast; 3.16 µM in the experiment with HCC-2998 colon; 4.74 µM with 786-0 renal; 3.72 µM with KM12 colon; 2.36 µM with DU-145 prostate; 3.02 µM in the experiment with MCF7 breast. In addition, the TGI in the experiment with SN12C renal is 6.05 µM; in the experiment with CAKI-1 renal, 1.99 µM; in the experiment with SF-295 CNS, 11.1 µM; with A498 renal, 5.07 µM.

As for `CCN1C(=O)N(CC)C2C1NN=c1s/c(=C\c3ccc(OC)cc3)c(=O)n12` (stereo not given), the GI50 in the experiment on HS 578T breast is 0.219 µM; in the experiment on HCC-2998 colon it was 0.357 µM; in the experiment on 786-0 renal it was 0.647 µM; in the experiment on KM12 colon, 0.0716 µM; with DU-145 prostate, 0.323 µM; in the experiment with MCF7 breast, 0.0465 µM. In addition, the GI50 was 0.454 µM in the experiment on SN12C renal, 0.0577 µM with CAKI-1 renal, 0.0684 µM with SF-295 CNS and 0.0222 µM in the experiment on A498 renal. The TGI is above 100 µM in the experiment with HS 578T breast; above 100 µM in the experiment on HCC-2998 colon; above 100 µM in the experiment on 786-0 renal; above 100 µM in the experiment on KM12 colon; above 29.8 µM in the experiment on DU-145 prostate; above 100 µM in the experiment with MCF7 breast. For the same molecule, the TGI was above 100 µM with SN12C renal, above 80.2 µM in the experiment on CAKI-1 renal, above 45.9 µM with SF-295 CNS and 0.0924 µM in the experiment with A498 renal.

Take `O=C1NC(=O)C(c2c[nH]c3ccccc23)=C1c1ccccc1`: the GI50 with HS 578T breast, in the experiment with HCC-2998 colon, in the experiment with 786-0 renal, in the experiment on KM12 colon, in the experiment on DU-145 prostate and with MCF7 breast was above 25 µM in each case. The GI50 in the experiment on SN12C renal was above 25 µM; in the experiment with CAKI-1 renal, above 25 µM; in the experiment with SF-295 CNS, above 25 µM; in the experiment on A498 renal it was above 17.6 µM. Also, the TGI with HS 578T breast, with HCC-2998 colon, in the experiment with 786-0 renal, in the experiment on KM12 colon, in the experiment on DU-145 prostate and with MCF7 breast was above 25 µM in each case. The TGI in the experiment with SN12C renal, in the experiment with CAKI-1 renal, in the experiment with SF-295 CNS and in the experiment with A498 renal was above 25 µM each time.

With `O=C(/C=C/c1ccccc1)OCC1=C[C@@H](O)[C@@H]2C=CO[C@@H](OC3OC(CO)C(O)C(O)C3O)[C@H]12` (stereo not given in full), the TGI with HS 578T breast, in the experiment on HCC-2998 colon, in the experiment with 786-0 renal, in the experiment with KM12 colon, in the experiment on DU-145 prostate and in the experiment with MCF7 breast was above 100 µM each time. For the same molecule, the TGI in the experiment with SN12C renal, with CAKI-1 renal, in the experiment with SF-295 CNS and in the experiment with A498 renal was above 100 µM each time.

Regarding `Oc1cccc(-c2nc(-c3ccccc3)[nH]c2-c2ccncc2)c1`, the GI50 with HS 578T breast was 10.2 µM; with HCC-2998 colon, 11.7 µM; in the experiment on 786-0 renal, 9.11 µM; in the experiment on KM12 colon, 13 µM; in the experiment on DU-145 prostate it was 16.3 µM; with MCF7 breast, 12.8 µM. For the same molecule, the GI50 in the experiment on SN12C renal is 15.9 µM; in the experiment on CAKI-1 renal it was 18.7 µM; in the experiment on SF-295 CNS, 14.7 µM; in the experiment on A498 renal, 6.07 µM. In addition, the TGI in the experiment with HS 578T breast, in the experiment with HCC-2998 colon, in the experiment on 786-0 renal, in the experiment with KM12 colon, with DU-145 prostate and in the experiment with MCF7 breast was above 25 µM throughout. Further, the TGI with SN12C renal is above 25 µM; in the experiment on CAKI-1 renal, above 25 µM; in the experiment with SF-295 CNS, above 25 µM; in the experiment on A498 renal, 17.4 µM.

Turning to `CNCCNc1nc2ccccc2c2c(=O)c3cccc(C)c3sc12`, the GI50 with HS 578T breast was 5.07 µM; with HCC-2998 colon, 0.824 µM; in the experiment on 786-0 renal, 4.07 µM; with KM12 colon, 1.11 µM; with DU-145 prostate it was 1.89 µM; in the experiment on MCF7 breast, 0.793 µM. Also, the GI50 in the experiment on SN12C renal was 2.04 µM; in the experiment on CAKI-1 renal, 1.16 µM; in the experiment on SF-295 CNS it was 5.54 µM; in the experiment with A498 renal it was 1.07 µM. The TGI with HS 578T breast amounted to 14.2 µM; in the experiment with HCC-2998 colon, 1.65 µM; in the experiment on 786-0 renal, 11.5 µM; with KM12 colon it was 2.88 µM; in the experiment with DU-145 prostate, 6.52 µM; in the experiment with MCF7 breast it was 1.82 µM. Also, the TGI in the experiment on SN12C renal amounted to 8.37 µM; with CAKI-1 renal it was 6.73 µM; with SF-295 CNS, 12.1 µM; in the experiment on A498 renal it was 3.94 µM.

As to `N[C@@H](CSSC[C@H](N)C(=O)N1CCn2cc(-c3ccccc3)nc2[C@@H]1CC1CCCCC1)C(=O)N1CCn2cc(-c3ccccc3)nc2[C@@H]1CC1CCCCC1`, the GI50 in the experiment on HS 578T breast is 3.1 µM; in the experiment with HCC-2998 colon, 1.66 µM; in the experiment on 786-0 renal, 2.12 µM; in the experiment on KM12 colon, 0.91 µM; with DU-145 prostate, 2.45 µM; in the experiment on MCF7 breast, 1.42 µM. The GI50 in the experiment with SN12C renal is 1.62 µM; with CAKI-1 renal, 1.91 µM; with SF-295 CNS it was 1.83 µM; in the experiment on A498 renal it was 2.68 µM. The TGI is above 100 µM with HS 578T breast; 3.17 µM in the experiment on HCC-2998 colon; 4.52 µM in the experiment with 786-0 renal; 2.47 µM in the experiment on KM12 colon; 8.65 µM in the experiment on DU-145 prostate; 2.85 µM with MCF7 breast. The TGI was 3.56 µM in the experiment on SN12C renal, 4.6 µM in the experiment with CAKI-1 renal, 3.41 µM in the experiment with SF-295 CNS and 5.39 µM in the experiment with A498 renal.

With `Cn1cc(C2=C(c3c(S(C)=O)n(C)c4ccccc34)C(=O)NC2=O)c2ccccc21` (stereo not given), the GI50 with HS 578T breast is 5.57 µM; in the experiment on HCC-2998 colon, 18.9 µM; with 786-0 renal it was above 19.9 µM; with KM12 colon it was 7.9 µM; in the experiment with DU-145 prostate it was 8.9 µM; with MCF7 breast, 6.33 µM. For the same molecule, the GI50 with SN12C renal was 14 µM; with CAKI-1 renal, 6.04 µM; in the experiment with SF-295 CNS it was 5.93 µM; with A498 renal it was 4.03 µM. The TGI is 24.9 µM with HS 578T breast; above 25 µM in the experiment with HCC-2998 colon; above 25 µM in the experiment on 786-0 renal; above 25 µM in the experiment with KM12 colon; above 25 µM in the experiment with DU-145 prostate; above 25 µM in the experiment with MCF7 breast. Further, the TGI with SN12C renal was above 25 µM; in the experiment on CAKI-1 renal it was above 25 µM; in the experiment with SF-295 CNS, above 17.2 µM; with A498 renal it was above 20.5 µM.
